Assay: xn = mol fraction of the nth substance listed
Conditions: 100 kPa, Liquid; for mass density: 303.15 K, Vibrating tube method; for speed of sound: 308.15 K, Frequency=5 MHz, Pulse-echo method

OCCCCCO [1,5-pentanediol] + O
Conditions | mass density [kg/m3] | speed of sound [m/s]
x1 = 0.0001 | – | 1519.6
x1 = 0.0003 | – | 1520.1
x1 = 0.0005 | – | 1520.7
x1 = 0.0007 | – | 1521.5
x1 = 0.001 | – | 1522.4
x1 = 0.0014 | – | 1523.4
x1 = 0.0018 | – | 1524.7
x1 = 0.0023 | – | 1526.2
x1 = 0.0028 | – | 1527.9
x1 = 0.0034 | – | 1529.7
x1 = 0.004 | – | 1531.4
x1 = 0.0047 | – | 1533.5
x1 = 0.005 | 995.24 | –
x1 = 0.0055 | – | 1535.7
x1 = 0.0064 | – | 1538.1
x1 = 0.0073 | – | 1540.8
x1 = 0.0083 | – | 1543.6
x1 = 0.0094 | – | 1546.5
x1 = 0.0101 | 995.18 | –
x1 = 0.0105 | – | 1549.3
x1 = 0.0116 | – | 1552.2
x1 = 0.0129 | – | 1555.4
x1 = 0.0141 | – | 1558.3
x1 = 0.0154 | – | 1561.5
x1 = 0.0167 | – | 1564.5
x1 = 0.0181 | – | 1567.6
x1 = 0.0195 | – | 1570.7
x1 = 0.0196 | 995.46 | –
x1 = 0.0211 | – | 1574.1
x1 = 0.0225 | – | 1577
x1 = 0.0238 | – | 1579.8
x1 = 0.0251 | 995.87 | –
x1 = 0.0252 | – | 1582.6
x1 = 0.0268 | – | 1585.5
x1 = 0.0283 | – | 1588.5
x1 = 0.0298 | – | 1591.2
x1 = 0.0304 | 996.33 | –
x1 = 0.0316 | – | 1594.3
x1 = 0.0336 | – | 1597.7
x1 = 0.0351 | – | 1600.2
x1 = 0.0367 | – | 1602.6
x1 = 0.0384 | – | 1605.2
x1 = 0.0403 | – | 1608.1
x1 = 0.0417 | – | 1610
x1 = 0.0436 | – | 1612.7
x1 = 0.0459 | – | 1615.8
x1 = 0.0481 | – | 1618.5
x1 = 0.05 | 997.59 | –
x1 = 0.0505 | – | 1621.5
x1 = 0.0528 | – | 1624
x1 = 0.0551 | – | 1626.6
x1 = 0.0574 | – | 1629
x1 = 0.0594 | – | 1631
x1 = 0.062 | – | 1633.4
x1 = 0.0648 | – | 1635.9
x1 = 0.0671 | – | 1637.9
x1 = 0.0706 | – | 1640.7
x1 = 0.073 | – | 1642.4
x1 = 0.0758 | – | 1644.4
x1 = 0.0769 | 998.6 | –
x1 = 0.1002 | 999.37 | –
x1 = 0.1438 | 999.75 | –
x1 = 0.1845 | 999.44 | –
x1 = 0.2503 | 998.42 | –
x1 = 0.3 | 997.34 | –
x1 = 0.3343 | 996.61 | –
x1 = 0.4171 | 994.93 | –
x1 = 0.454 | 994.03 | –
x1 = 0.5003 | 993 | –
x1 = 0.5362 | 992.2 | –
x1 = 0.6177 | 990.7 | –
x1 = 0.6478 | 990.1 | –
x1 = 0.7025 | 989.2 | –
x1 = 0.7504 | 988.4 | –
x1 = 0.7927 | 987.6 | –
x1 = 0.8605 | 986.4 | –
x1 = 0.9004 | 985.7 | –
x1 = 0.9496 | 984.6 | –
x1 = 1 | 983.6 | –

Reference: the NIST ThermoML archive (doi:10.1016/j.jct.2017.06.001)
